Experimental data published in patent EP1228063B1, “SUBSTITUTED PYRIDINES AND PYRIDAZINES WITH ANGIOGENESIS INHIBITING ACTIVITY” (BAYER CORPORATION, priority 1999, dated 2001).

What was measured:
[1] = target: T1, NIH3T3 cells expressing the full length KDR receptor (Homo sapiens, UniProt P35968); assay: Cell mechanistic assay - Inhibition of 3T3 KDR phosphorylation; type: cell-based; conditions: VEGF (30 ng / ml) stimulated KDR phosphorylation in NIH3T3 cells, 30 minutes preincubation
T1 construct: NIH3T3 cells expressing the full length KDR receptor; expressed in transfected cells; host or cells: NIH3T3 cells (G418 selection)
Method: NIH3T3 cells expressing the full length KDR receptor were grown in DMEM (Life Technologies, Inc., Grand Island, NY) supplemented with 10% newborn calf serum, low glucose, 25 mM /L sodium pyruvate, pyridoxine hydrochloride and 0.2 mg/ ml of G418 (Life Technologies Inc., Grand Island, NY). The cells were maintained in collagen I-coated T75 flasks (Becton Dickinson Labware, Bedford, MA) in a humidified 5% CO2 atmosphere at 37°C.
Fifteen thousand cells were plated into each well of a collagen 1-coated 96-well plate in the DMEM growth medium. Six hours later, the cells were washed and the medium was replaced with DMEM without serum. After overnight culture to quiesce the cells, the medium was replaced by Dulbecco's phosphate-buffered saline (Life Technologies Inc., Grand Island, NY) with 0.1 % bovine albumin (Sigma Chemical Co., St Louis, MO). After adding various concentrations (0-300 nM) of test compounds to the cells in 1% final concentration of DMSO, the cells were incubated at room temperature for 30 minutes. The cells were then treated with VEGF (30 ng / ml) for 10 minutes at room temperature. Following VEGF stimulation, the buffer was removed and the cells were lysed by addition of 150 µl of extraction buffer (50 mM Tris, pH 7.8, supplemented with 10% glycerol, 50 mM BGP, 2 mM EDTA, 10 mM NaF, 0.5 mM NaVO4, and 0.3% TX-100) at 4°C for 30 minutes.
To assess receptor phosphorylation, 100 microliters of each cell lysate was added to the wells of an ELISA plate precoated with 300 ng of antibody C20 (Santa Cruz Biotechnology, Inc., Santa Cruz , CA). Following a 60-minute incubation, the plate was washed and bound KDR was probed for phosphotyrosine using an anti-phosphotyrosine mAb clone 4G10 (Upstate Biotechnology, Lake Placid, NY). The plate was washed and wells were incubated with anti-mouse IgG/HRP conjugate (Amersham International plc, Buckinghamshire, England) for 60 minutes. Wells were washed and phosphotyrosine was quantitated by addition of 100 µl per well of 3,3',5,5' tetramethylbenzidine (Kirkegaard and Perry, TMB Microwell 1 Component peroxidase substrate) solution. Color development was arrested by the addition of 100 µl 1% HCl based stop solution (Kirkegaard and Perry, TMB 1 Component Stop Solution).
Optical densities (OD) were determined spectrophotometrically at 450 nm in a 96-well plate reader (SpectraMax 250, Molecular Devices). Background (no VEGF added) OD values were subtracted from all ODs and percent inhibition was calculated according to the equation: % Inhibition = ((OD(VEGF control)-OD(with test compound)) × 100)/(OD(VEGF control)-OD(no VEGF added)) [formula]
IC50s were determined on some of the exemplary materials with a least squares analysis program using compound concentration versus percent inhibition. Compounds that have IC50 ≤ 20 nM in this assay include those of Examples 2, 6, 10, 11, 14, 23, 96, 101, 102, 103, 104, 105. Compounds that have IC50 values between 20 nM and 50 nM include those of examples 1, 4, 8, 9, 12, 13, 17, 24, 93, 98. Compounds that have IC50 values between 50 nM and 400 nM include those of examples 97, 99, and 100.

KDR kinase domain = target: T2, KDR kinase domain (Homo sapiens, UniProt P35968); assay: KDR Assay (ELISA of poly(Glu4;Tyr1) phosphorylation); type: biochemical; conditions: 3.3 µM ATP, 60 minutes at room temperature
T2 construct: The cytosolic kinase domain of KDR kinase was expressed as a 6His fusion protein in Sf9 insect cells; 6His; made in house; host or cells: Sf9 insect cells
Method: The cytosolic kinase domain of KDR kinase was expressed as a 6His fusion protein in Sf9 insect cells. The KDR kinase domain fusion protein was purified over a Ni++ chelating column. Ninety-six well ELISA plates were coated with 5 µg poly(Glu4;Tyr1) (Sigma Chemical Co., St Louis, MO) in 100 µl HEPES buffer (20 mM HEPES, pH 7.5, 150 mM NaCl, 0.02% Thimerosal) at 4° overnight. Before use, the plate was washed with HEPES, NaCl buffer and the plates were blocked with 1% BSA, 0.1% Tween 20 in HEPES, NaCl buffer.
Test compounds were serially diluted in 100% DMSO from 4 mM to 0.12 µM in half-log dilutions. These dilutions were further diluted twenty fold in H2O to obtain compound solutions in 5% DMSO. Following loading of the assay plate with 85 µl of assay buffer (20 mM HEPES, pH 7.5, 100 mM KCI, 10 mM MgCl2, 3 mM MnCl2, 0.05% glycerol, 0.005% Triton X-100, 1 mM -mercaptoethanol, with or without 3.3 µM ATP), 5 µl of the diluted compounds were added to a final assay volume of 100 µl. Final concentrations were between 10 µM, and 0.3 nM in 0.25% DMSO. The assay was initiated by the addition of 10µl (30 ng) of KDR kinase domain.
The assay was incubated with test compound or vehicle alone with gentle agitation at room temperature for 60 minutes. The wells were washed and phosphotyrosines (PY) were probed with an anti-phosphotyrosine (PY), mAb clone 4G10 (Upstate Biotechnology, Lake Placid, NY). PY/anti-PY complexes were detected with an anti-mouse IgG/HRP conjugate (Amersham International plc, Buckinghamshire, England). Phosphotyrosine was quantitated by incubating with 100 µl 3, 3', 5, 5' tetramethylbenzidine solution (Kirkegaard and Perry, TMB Microwell 1 Component peroxidase substrate). Color development was arrested by the addition of 100 µl 1% HCl-based stop solution (Kirkegaard and Perry, TMB I Component Stop Solution).
Optical densities were determined spectrophotometrically at 450 nm in a 96-well plate reader, SpectraMax 250 (Molecular Devices). Background (no ATP in assay) OD values were subtracted from all ODs and the percent inhibition was calculated according to the equation: % Inhibition = ((OD(vehicle control)-OD(with compound)) × 100)/(OD(vehicle control)-OD(no ATP added)) [formula]

T2 sequence (P35968 834-1162 limits assumed): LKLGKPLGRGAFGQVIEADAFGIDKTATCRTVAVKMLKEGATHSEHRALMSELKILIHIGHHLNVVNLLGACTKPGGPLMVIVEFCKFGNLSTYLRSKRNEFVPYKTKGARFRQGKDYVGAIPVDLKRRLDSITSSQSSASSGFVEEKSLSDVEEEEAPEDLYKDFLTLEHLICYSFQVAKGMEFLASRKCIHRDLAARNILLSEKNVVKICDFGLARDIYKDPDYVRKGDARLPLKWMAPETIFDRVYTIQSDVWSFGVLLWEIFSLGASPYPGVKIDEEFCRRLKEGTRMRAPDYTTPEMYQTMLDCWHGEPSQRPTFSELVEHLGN
T1 sequence (P35968 20-1356): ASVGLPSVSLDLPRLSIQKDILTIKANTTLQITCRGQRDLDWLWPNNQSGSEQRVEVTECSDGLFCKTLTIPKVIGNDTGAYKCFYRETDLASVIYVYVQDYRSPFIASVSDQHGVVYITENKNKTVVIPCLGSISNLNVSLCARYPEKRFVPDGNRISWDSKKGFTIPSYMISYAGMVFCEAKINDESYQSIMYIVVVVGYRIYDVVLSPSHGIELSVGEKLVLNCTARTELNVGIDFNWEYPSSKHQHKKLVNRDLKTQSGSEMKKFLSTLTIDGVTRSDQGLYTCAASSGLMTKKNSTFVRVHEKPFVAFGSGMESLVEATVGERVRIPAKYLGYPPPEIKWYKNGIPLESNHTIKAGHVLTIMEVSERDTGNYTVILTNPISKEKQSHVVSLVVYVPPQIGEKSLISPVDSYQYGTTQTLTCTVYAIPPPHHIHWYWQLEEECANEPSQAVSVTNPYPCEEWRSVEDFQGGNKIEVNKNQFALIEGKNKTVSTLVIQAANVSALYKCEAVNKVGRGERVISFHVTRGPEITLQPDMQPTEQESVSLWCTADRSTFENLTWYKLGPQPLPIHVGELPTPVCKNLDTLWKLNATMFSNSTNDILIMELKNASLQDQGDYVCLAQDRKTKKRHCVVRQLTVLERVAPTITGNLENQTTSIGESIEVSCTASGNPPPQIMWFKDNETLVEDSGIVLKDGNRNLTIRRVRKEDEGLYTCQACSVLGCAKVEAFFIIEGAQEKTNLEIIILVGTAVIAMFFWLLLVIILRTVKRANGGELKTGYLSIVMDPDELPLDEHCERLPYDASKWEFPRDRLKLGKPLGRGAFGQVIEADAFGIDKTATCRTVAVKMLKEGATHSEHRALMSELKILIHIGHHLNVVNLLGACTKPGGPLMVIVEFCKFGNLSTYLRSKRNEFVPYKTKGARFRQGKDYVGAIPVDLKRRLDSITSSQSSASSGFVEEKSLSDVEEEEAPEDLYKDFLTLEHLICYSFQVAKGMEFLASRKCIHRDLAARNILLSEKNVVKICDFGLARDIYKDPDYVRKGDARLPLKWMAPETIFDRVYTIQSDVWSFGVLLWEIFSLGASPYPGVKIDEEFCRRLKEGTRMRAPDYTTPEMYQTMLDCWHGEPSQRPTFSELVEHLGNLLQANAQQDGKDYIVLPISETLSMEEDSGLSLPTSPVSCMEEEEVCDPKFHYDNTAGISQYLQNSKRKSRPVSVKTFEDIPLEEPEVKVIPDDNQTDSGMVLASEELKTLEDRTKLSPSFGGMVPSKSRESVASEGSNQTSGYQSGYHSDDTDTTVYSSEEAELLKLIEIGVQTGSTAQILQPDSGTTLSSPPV

Row | IC50 [1] [nM] | IC50 (KDR kinase domain) [nM] | Structure (SMILES)
1 | 20 to 50 |  | Clc1ccc(Nc2ncc(Sc3ccncc3)c3ccccc23)cc1 [Example 1, 1-(4-chlorophenylamino)-4-(4-pyridylthio)isoquinolinc]
2 |  | 100 to 1000 | c1ccc2c(Nc3ccc4ncsc4c3)ncc(Sc3ccncc3)c2c1 [Example 3, 1-(benzothiazol-6-ylamino)-4-(4-pyridylthio)isoquinolin]
3 | 20 to 50 |  | Clc1ccc(Nc2ncc(Cc3ccncc3)c3ccccc23)cc1 [Example 4, 1-(4-chlorophenylamino)-4-(4-pyridylmethyl)isoquinoline]
4 |  | 100 to 1000 | c1ccc2c(Nc3ccc4ncsc4c3)ncc(Cc3ccncc3)c2c1 [Example 5, 1-(benzothiazol-6-ylamino)-4-(4-pyridylmethyl)-isoquinoline]
5 | 20 to 50 |  | NC(=O)c1cc(Cc2cnc(Nc3ccc(Cl)cc3)c3ccccc23)ccn1 [Example 12, 1-(4-chlorophenylamino)-4-(2-aminocarbonyl-4-pyridylmethyl)isoquinolin]
6 | 20 to 50 |  | CNC(=O)c1cc(Cc2cnc(Nc3ccc(Cl)cc3)c3ccccc23)ccn1 [Example 13, 1-(4-chlorophenylamino)-4-(2-methylaminocarbonyl-4-pyridylmethyl)isoquinoline]
7 | 20 to 50 |  | Clc1ccc(Nc2nnc(Nc3ccc4ncsc4c3)c3sccc23)cc1 [Example 17, 4-(4-chlorophenylamino)-7-(benzothiazol-6-ylamino)thieno[2,3-d]pyridazine]
8 |  | ≤ 100 | c1nc2ccc(Nc3nnc(Nc4ccc5c(c4)CCC5)c4ccsc34)cc2s1 [Example 18, 4-(indan-5-ylamino)-7-(benzothiazol-6-ylamino)thieno-[2,3-d]pyridazine]
9 |  | 100 to 1000 | COc1ccc(Nc2nnc(OCc3ccncc3)c3occc23)cc1 [Example 21, 4-(4-methoxyphenylamino)-7-(4-pyridylmethoxy)furo-[2,3-d]pyridazine]
10 |  | 100 to 1000 | c1cc2c(Nc3ccc4[nH]ncc4c3)nnc(Nc3ccc4[nH]ncc4c3)c2s1 [Example 27]
11 |  | 100 to 1000 | c1cc2c(Nc3ccc4ncsc4c3)nnc(Nc3ccc4ncsc4c3)c2o1 [Example 28]
12 |  | 100 to 1000 | CNC(=O)c1cc(COc2nnc(Nc3cccc(Cl)c3)c3ccoc23)ccn1 [Example 35]
13 |  | 100 to 1000 | CNC(=O)c1cc(COc2nnc(Nc3ccc(F)c(Cl)c3)c3ccoc23)ccn1 [Example 36]
14 |  | 100 to 1000 | CNC(=O)c1cc(COc2nnc(Nc3ccc(N(C)C(C)=O)cc3)c3ccoc23)ccn1 [Example 45]
15 |  | 100 to 1000 | CNC(=O)c1cc(COc2nnc(Nc3ccc(N4CCOCC4)cc3)c3ccoc23)ccn1 [Example 46]
16 |  | 100 to 1000 | Clc1ccc(Nc2nnc(Nc3ccc4ncsc4c3)c3occc23)cc1 [Example 48]

Row | IC50 [1] [nM] | IC50 (KDR kinase domain) [nM] | Structure (SMILES)
17 |  | 100 to 1000 | CNC(=O)c1cc(COc2nnc(Nc3ccccc3OC)c3ccoc23)ccn1 [Example 50]
18 |  | 100 to 1000 | CNC(=O)c1cc(COc2nnc(Nc3ccc4[nH]ncc4c3)c3ccoc23)ccn1 [Example 55]
19 |  | 100 to 1000 | Oc1ccc(Nc2nnc(OCc3ccncc3)c3occc23)cc1 [Example 58]
20 |  | 100 to 1000 | O=C(c1cc(COc2nnc(Nc3ccc(Cl)cc3)c3ccoc23)ccn1)N1CCOCC1 [Example 61]
21 |  | 100 to 1000 | OCc1cc(COc2nnc(Nc3ccc(Cl)cc3)c3ccoc23)ccn1 [Example 64]
22 |  | 100 to 1000 | CNC(=O)c1cc(COc2nnc(Nc3ccc(F)cc3)c3ccsc23)ccn1 [Example 67]
23 |  | 100 to 1000 | Cc1ccc(Nc2nnc(Nc3ccc4ncsc4c3)c3sccc23)cc1F [Example 79]
24 |  | 100 to 1000 | CN(C)CCNC(=O)c1cc(COc2nnc(Nc3ccc(Cl)cc3)c3ccoc23)ccn1 [Example 82A]
25 | 20 to 50 | ≤ 100 | c1ccc2c(Nc3ccc4ncsc4c3)nnc(Nc3ccc4ncsc4c3)c2c1 [Example 93]
26 |  | 100 to 1000 | Clc1ccc(Nc2nnc(Nc3ccc4nc[nH]c4c3)c3ccccc23)cc1 [Example 95]
27 | 50 to 400 |  | Brc1ccc2c(c1)CCN2c1nnc(Nc2ccc3ncsc3c2)c2ccccc12 [Example 97]
28 | 20 to 50 |  | FC1(F)Oc2ccc(Nc3nnc(Nc4ccc5ncsc5c4)c4ccccc34)cc2O1 [Example 98]
29 | 50 to 400 | 100 to 1000 | c1ccc2c(Nc3ccc4ncsc4c3)nnc(Nc3ccc(N4CCCCC4)cc3)c2c1 [Example 99]
30 | 50 to 400 | 100 to 1000 | CCN(c1ccc(Nc2nnc(Nc3ccc4ncsc4c3)c3ccccc23)cc1)C(C)C [Example 100]
31 | ≤ 20 | ≤ 100 | Cc1ccc(Nc2nnc(Nc3ccc4ncsc4c3)c3ccccc23)cc1F [Example 104]
